Measurements: article PMC11801377, “A uniquely efficacious type of CFTR corrector with complementary mode of action” (Science Advances, 2024)

Target: F508del-CFTR (Homo sapiens, UniProt P13569, DEL508-508)
Assay: Halide-sensitive YFP quenching assay in U2OS-F508del-CFTR-YFP cells
Assay type: cell-based
Set-up: host or cells: U2OS (PathHunter U2OS-F508del-CFTR MEM-EA)
Conditions: overnight treatment; acute forskolin and IVA 2 nM
Experimental: U2OS-F508del-CFTR cells expressing Topaz-YFP F46L/H148Q/I152L were seeded at 20,000 cells per well into 384-well black clear-bottom plates in 40 μl per well growth medium (Mc COY’s 5A, Gibco, 10% FBS, penicillin/streptomycin), containing the various CFTR correctors at the indicated concentrations. The cells were coincubated with the compounds for 24 hours (37°C, 5% CO2). The next day, plates were washed twice with PBS^+ (55 μl per well; PBS containing 0.9 mM Ca^2+ and 0.5 mM Mg^2+). PBS^+ was fully removed, and cells were supplemented with 15 μl PBS^+. Then, 5 μl of 4× concentrated stocks of IVA or vehicle in dilution buffer [PBS^+, 0.1 μM forskolin, and 0.2% bovine serum albumin (fatty acid free) (pH 7.4)] were added and incubated for 30 min in the dark. For experiments with I-172 (Sigma- Aldrich), the inhibitor was added to the mix with either IVA or vehicle to reach a final concentration in cells of 20 μM. Then, plates were transferred to the FLIPR Tetra (fluorescence imaging plate reader; Molecular Devices: excitation: 470 to 495 nm; emission: 526 to 585 nm), baseline fluorescence reading of the YFP signal was performed for 6 s (10 × 0.6 s intervals) after which 25 μl of iodide buffer [137 mM NaI, 2.7 mM KCl, 1.5 mM KH2PO4, 8.1 mM Na2HPO4, 1 mM CaCl2, and 0.5 mM MgCl2 (pH 7.4)] was added, and fluorescence reading was continued for 70 s (50 × 0.6 s intervals; 20 x 2 s intervals) to assess YFP quenching through CFTR-mediated iodide influx. For analysis, fluorescence traces were aligned and normalized at the last time point before iodide addition (normalized fluorescence = 1). Normalized fluorescence values obtained 20 s after the beginning of the assay were used to assess the degree of YFP quenching, i.e., CFTR function (see fig. S1J). […] Then, plates were read and analyzed as above. […] Then, plates were transferred to the FLIPR Tetra and read and analyzed as above.

F508del-CFTR, sequence (P13569 with tags, fused parts or gaps DEL508-508): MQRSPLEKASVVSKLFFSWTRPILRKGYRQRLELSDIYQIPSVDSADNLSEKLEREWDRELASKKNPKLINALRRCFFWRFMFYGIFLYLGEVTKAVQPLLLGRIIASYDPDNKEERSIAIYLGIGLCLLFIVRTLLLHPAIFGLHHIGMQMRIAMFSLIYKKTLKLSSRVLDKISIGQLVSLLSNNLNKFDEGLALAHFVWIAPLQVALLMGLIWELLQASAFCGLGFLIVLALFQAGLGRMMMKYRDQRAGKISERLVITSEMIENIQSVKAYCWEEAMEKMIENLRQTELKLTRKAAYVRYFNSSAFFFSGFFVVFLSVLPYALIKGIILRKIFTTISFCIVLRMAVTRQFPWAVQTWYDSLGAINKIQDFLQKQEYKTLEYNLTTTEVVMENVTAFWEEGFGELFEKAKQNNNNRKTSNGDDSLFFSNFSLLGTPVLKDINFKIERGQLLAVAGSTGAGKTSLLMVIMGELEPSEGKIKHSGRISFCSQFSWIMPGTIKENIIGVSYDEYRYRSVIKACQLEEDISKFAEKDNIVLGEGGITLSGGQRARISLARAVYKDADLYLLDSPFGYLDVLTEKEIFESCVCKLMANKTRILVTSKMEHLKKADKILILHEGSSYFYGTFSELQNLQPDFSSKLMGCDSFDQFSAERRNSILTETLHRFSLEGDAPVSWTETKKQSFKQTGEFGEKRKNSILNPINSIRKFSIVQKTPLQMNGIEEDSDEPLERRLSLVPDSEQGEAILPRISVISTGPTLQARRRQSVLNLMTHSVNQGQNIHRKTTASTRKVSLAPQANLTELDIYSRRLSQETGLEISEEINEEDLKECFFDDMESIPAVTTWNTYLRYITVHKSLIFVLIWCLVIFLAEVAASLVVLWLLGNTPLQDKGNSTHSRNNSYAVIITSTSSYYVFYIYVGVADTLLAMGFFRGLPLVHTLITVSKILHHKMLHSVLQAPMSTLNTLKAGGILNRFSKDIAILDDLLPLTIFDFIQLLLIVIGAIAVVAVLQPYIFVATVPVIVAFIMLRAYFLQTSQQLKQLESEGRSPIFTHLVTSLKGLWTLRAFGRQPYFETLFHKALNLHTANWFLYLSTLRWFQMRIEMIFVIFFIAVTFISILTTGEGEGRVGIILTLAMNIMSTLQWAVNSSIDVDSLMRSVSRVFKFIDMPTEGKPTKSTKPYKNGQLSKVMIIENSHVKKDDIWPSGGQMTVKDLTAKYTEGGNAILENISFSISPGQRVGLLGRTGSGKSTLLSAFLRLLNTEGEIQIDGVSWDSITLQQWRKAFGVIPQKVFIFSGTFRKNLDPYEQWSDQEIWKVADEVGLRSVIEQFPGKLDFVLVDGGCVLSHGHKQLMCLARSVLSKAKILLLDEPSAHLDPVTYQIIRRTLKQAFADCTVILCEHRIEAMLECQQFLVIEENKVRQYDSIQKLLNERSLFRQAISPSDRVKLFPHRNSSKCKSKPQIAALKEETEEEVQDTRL

## COc1cc(CCNC(=O)C2CC(=O)N(C)C(CC(C)C)C(=O)N3CCCCC3C(=O)NC(Cc3ccccc3)COc3ccc4ncc(F)cc4c3C(=O)N2)on1 (stereo not shown) [IDOR-3]
  F508del-CFTR function (YFP quenching): strongly increased F508del-CFTR function
